Where a name gives a salt, the structure may show the parent alone. Read-outs that look alike come from different tables or passages of the source.
Experiments:
[1] = target: lipase from Pseudomonas sp. (type XIII); assay: Bacterial lipase inhibitory activity test (4-methylumbelliferyl oleate fluorescence); assay type: biochemical; details: 0.1 μg/ml lipase solution
From the text: In order to extensively evaluate lipase inhibitory activities of the product of the present invention and of a plurality of known components, lipase derived from commercially available bacteria of Pseudomonas (Pseudomonas sp.) was used. Pseudomonas is a […] of gram-negative aerobic bacteria. A representative example of well-known bacteria is P. aeruginosa. In the experiment, lipase from Pseudomonas sp. (type XIII, ≧15 units/solid, L9518, Sigma-Aldrich Japan) was used. This lipase is a very potent enzyme. From the preliminary inquiry to the inhibitory activity test, 0.1 μg/ml of a lipase solution was used. In the experiment, fractions obtained in Examples 2 and 3 containing proanthocyanidin polymers derived from cashew apple of the present invention were subjected to the assay. The following reagent was used as a control sample to assay lipase inhibitory activity.
Assay was carried out in accordance with Non-Patent Document 2 (J. Agric. Food Chem., 2007, 55, 4604-4609). A specimen diluent and a blank solution (a specimen diluent) were added to a 96-well fluorescence plate and then at 25 μl/well. A lipase solution prepared with the use of PBS(−) (lipase from Pseudomonas sp. Type XIII, SIGMA) was added to the test of the present invention at 25 μl/well and PBS(−) was added to the blind test group at 25 μl/well. A 0.1 mM fluorescent substrate solution (4-methylumbelliferyl oleate, Fluka) prepared with the use of PBS(−) was added thereto at 50 μl/well, and the reaction was then allowed to proceed for 20 minutes. A 0.1 M sodium citrate solution (pH 4.2) was added as a reaction terminator at 100 μl/well, and fluorescence intensity was assayed using a fluorescence plate reader (Ex 365 nm, Em 450 nm). Lipase inhibitory activity was determined by the following formula. 3,4-Dihydroxycinnamic acid and gallic acid were dissolved in an aqueous solution of 10% methanol, and a blank solvent was subjected to the assay with the use of an aqueous methanol solution at the same concentration.
<Calculation Formula> Lipase inhibitory activity(%)=(1−(A−B)/(C−D))×100 A: fluorescence intensity in the blind test using a sample solution B: fluorescence intensity in the test of the present invention using a sample solution C: fluorescence intensity in the blind test using a blank solution (a dilute solvent) D: fluorescence intensity in the test of the present invention using a blank solution (a dilute solvent)
Enzyme inhibitory activities of the sample solutions were assayed at a plurality of concentrations, the data were logarithmically plotted, and the concentration at which 50% of lipase activity was inhibited (IC50) was determined by the least-square method.
Using the powders prepared by fractionation via ultrafiltration and lyophilization in Example 3, the relationship between the molecular weight and the bacterial lipase inhibitory activity was examined. The lipase inhibitory activity test was carried out in the manner described in Example 9.

[2] = Assay of antioxidation activity via DPPH radical elimination; details: 30° C., 30 minutes, absorbance 517 nm
Method: A solution of a stable radical, diphenyl-p-picrylhydradil (DPPH), in ethanol was used to evaluate the antioxidation activity. Ethanol (1,200 μl) and 400 μl of specimens (adjusted at an arbitrary concentration) were mixed with 1,600 μl of 250 mM acetate buffer (pH 5.5), and the mixture was preincubated at 30° C. for 5 minutes. A 500 μM DPPH/ethanol solution (800 μl) was added thereto, the resulting mixture was allowed to stand at 30° C. for 30 minutes, and the absorbance at 517 nm was assayed. When the control sample dissolved in ethanol was used as a specimen, 800 μl of ethanol, 400 μl of a solution of specimens in ethanol, and 400 μl of purified water were mixed, and the resulting mixture was preincubated at 30° C. for 5 minutes. A 500 μM DPPH/ethanol solution (800 μl) was added thereto, the resulting mixture was allowed to stand at 30° C. for 30 minutes, and the absorbance at 517 nm was assayed. A solution prepared in the same manner except for the use of purified water was used as a control sample. Based on the absorbance assayed, the percentage of radical elimination was determined by the following formula. Radical elimination(%)=(1−[absorbance of sample]/[absorbance of control])×100
The concentration of the sample in the sample solution was gradually changed to determine the percentage of radical elimination, the concentration of the sample solution at which the percentage of DPPH radical elimination became 50% was determined, and the determined value was designated as the 50% elimination concentration of DPPH radicals. As the value is reduced, the capacity for radical elimination is enhanced.

[3] = target: T1, lipase from porcine pancreas Type II (Sus scrofa, UniProt P00591); assay: Lipase inhibitory activity assay (4-methylumbelliferyl oleate fluorescence); assay type: biochemical; details: final specimen concentration; porcine pancreatic lipase
T1 construct: lipase from porcine pancreas Type II, SIGMA; purchased SIGMA; host or cells: porcine pancreas
Method: Assay was carried out in accordance with Non-Patent Document 2 (J. Agric. Food Chem., 2007, 55, 4604-4609). A specimen solution was added to a 96-well fluorescence plate at 25 μl/well. A lipase solution (lipase from porcine pancreas Type II, SIGMA) prepared with the use of PBS(−) was added to the plate of the test group at 25 μl/well and PBS(−) was added to the plate of the blind test group at 25 μl/well. A 0.1 mM fluorescent substrate solution (4-methylumbelliferyl oleate, Fluka) prepared with the use of PBS(−) was added thereto at 50 μl/well, and the reaction was then allowed to proceed for 20 minutes. A 0.1 M sodium citrate solution (pH 4.2) was added as a reaction terminator at 100 μl/well, and fluorescence intensity was assayed using a fluorescence plate reader (Ex 365 nm, Em 450 nm). In a blank test, samples of the test group and of the blind test group were prepared and fluorescence intensity was assayed in the same manner as described above, except that the same amount of a solvent used for the preparation of a specimen solution was used instead of “specimen solution.” The percentage of lipase inhibition was determined by the following formula. […]

lipase [4] = target: T2, lipase (Sus scrofa, UniProt P00591); details: Non-Patent Document 2; read-out: Lipase inhibitory activity (IC50) (converted); cited from earlier work
T2 sequence (P00591 1-450): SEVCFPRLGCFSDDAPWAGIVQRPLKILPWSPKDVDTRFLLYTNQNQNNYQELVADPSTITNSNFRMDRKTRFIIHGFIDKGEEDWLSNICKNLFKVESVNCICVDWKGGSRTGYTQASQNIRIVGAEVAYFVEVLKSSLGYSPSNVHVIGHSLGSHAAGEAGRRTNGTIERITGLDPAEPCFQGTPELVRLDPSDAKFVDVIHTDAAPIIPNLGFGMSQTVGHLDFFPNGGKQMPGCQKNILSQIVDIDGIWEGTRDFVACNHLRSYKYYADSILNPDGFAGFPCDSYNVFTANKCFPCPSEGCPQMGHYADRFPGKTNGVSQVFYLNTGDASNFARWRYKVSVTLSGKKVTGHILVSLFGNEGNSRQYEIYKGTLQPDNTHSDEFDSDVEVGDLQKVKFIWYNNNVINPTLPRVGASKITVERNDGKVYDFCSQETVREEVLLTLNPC

lipase [5] = target: T2, lipase; details: cited from earlier work; for IC50: read-out: Lipase inhibitory activity (IC50)

Molecule	Activity of bacterial lipase inhibition (IC50) [1] [µg/mL]	50% Elimination concentration of DPPH radicals [2] [µg/mL]	other results
O=C(O)C=Cc1ccc(O)c(O)c1 [3,4-Dihydroxycinnamic acid]	42.3	2.8	–
O=C(/C=C/c1ccc(O)c(O)c1)O[C@@H]1C[C@](O)(C(=O)O)C[C@@H](O)[C@H]1O [Chlorogenic acid, chlorogenic acid]	69.2	–	IC50 [3]: 219 µM; IC50 (lipase [4]): 169 µM
O.O=C(O)c1cc(O)c(O)c(O)c1 [Gallic acid monohydrate]	574.2	1.2	–
O=C1O[C@H]([C@@H](O)CO)C(O)=C1O [L(+)-ascorbic acid]	–	3.9	–
CN(C)[C@@H]1C(O)=C(C(N)=O)C(=O)[C@@]2(O)C(O)=C3C(=O)c4c(O)cccc4[C@@](C)(O)[C@H]3C[C@@H]12 [Tetracycline hydrochloride]	134.6	–	–
(−)-epigallocatechin 3-O-gallate [Epigallocatechin gallate]	918.8	2.0	Lipase inhibitory activity (IC50) [3]: 20.0 µg/mL; IC50 (lipase [5]; Patent Document 4): 0.284 µM; Lipase inhibitory activity (IC50) (lipase [5]; Patent Document 5, value in brackets): 0.16 µg/mL; IC50 (lipase [5]; Patent Document 5): 0.349 µM

Source: patent US8575368B2, “Proanthocyanidin of cashew apple, composition containing proanthocyanidin, and application thereof” (Nichirei Biosciences, Inc., priority 2008, dated 2013)
